Measurements published in US9320809B2, “Nanoparticle comprising hydrophobic drug conjugated to cationic polymer and hydrophilic drug conjugated to anionic polymer” (University-Industry Foundation, Yonsei University, priority 2014, dated 2016).

Tested on: Bax, Bcl-2, Bcl-xL mRNA in HuCCT1 and SCK cells
Assay: Expression level of apoptosis-related genes (real-time PCR)
Assay type: cell-based
Details: same amount of drugs; for change of apoptosis gene expression according to the level of expression of CD44: HuCCT1 versus SCK
Protocol: The level of expression of an apoptosis gene of each material was compared and analyzed under the same condition as Experimental Example 4.
Specifically, 1×10^6 HuCCT1 and SCK cells were treated with GEM, PTX, GEM+PTX, HA-GEM, PLL-PTX, HA-GEM, and MDNCs for 4 hours based on the same amount of GEM and PTX. Then, the cells were incubated in a new medium for 24 hours, and thereby the cells were obtained. Total amount of RNA with respect to all the obtained cells was obtained with an RNeasy plus mini kit (QIAGEN Gmbh), and then a concentration of total RNA was obtained using a biophotometer. Thereafter, 2 μg of complementary DNA (cDNA) with respect to the total RNA was synthesized through a high capacity RNA-to-cDNA kit (Applied Biosystems; Thermo Fisher Scientific Inc.). Quantitative analysis of the synthesized cDNA was performed using a QuantiMix SYBR Kit (PKT, Korea) in a real-time PCR system (LightCycler 480 System, HNS Bio). The quantitative analysis was performed through a reacting solution (20 μl) including cDNA (1 μl), SYBR Green mixture (10 μl), each of forward primer (1 μl) and reverse primer (1 μl), and DEPC water (7 μl). The used primers were as follows: […]
PCR was performed at 95° C. for 5 minutes, and then genes were amplified for 45 cycles (10 seconds at 95° C., 10 seconds at 60° C., and 10 seconds at 72° C.). A relative amount of each mRNA was analyzed using a Ct method (2-ΔΔCt) based on GAPDH of each cell, from data obtained as described above.

| Structure (SMILES) | change of apoptosis gene expression according to the level of expression of CD44 | effects on apoptosis gene expression compared with MDNCs |
| --- | --- | --- |
| Nc1ccn([C@@H]2O[C@H](CO)[C@@H](O)C2(F)F)c(=O)n1 [GEM, gemcitabine] | few changes | lower than those of the MDNCs |
| CC(=O)O[C@H]1C(=O)[C@@]2(C)[C@H]([C@H](OC(=O)c3ccccc3)[C@]3(O)C[C@H](OC(=O)[C@H](O)[C@@H](NC(=O)c4ccccc4)c4ccccc4)C(C)=C1C3(C)C)[C@]1(OC(C)=O)CO[C@@H]1C[C@@H]2O [PTX, paclitaxel] | few changes | lower than those of the MDNCs |
